Results published in PubChem BioAssay (NCI).
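Values below derive from 48-hour exposures of cells grown in 96-well plates, with endpoints linearly interpolated between the two concentrations bracketing the appropriate inhibition level. TGI is the concentration that stops growth completely.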

Tests used:
Test in all cases: inhibition of tumour cell growth, NCI panel, 48 h
[1] = test system: OVCAR-8 ovarian
[2] = test system: EKVX NSCLC
[3] = test system: MDA-MB-435
[4] = test system: SK-MEL-28 melanoma
[5] = test system: UACC-257 melanoma
[6] = test system: SN12C renal
[7] = test system: ACHN renal
[8] = test system: MCF7 breast
[9] = test system: KM12 colon
[10] = test system: NCI-H226 lung

Question: Cc1ccc2c(=O)cc(-c3ccccc3)[nH]c2n1 was tested. Which TGI [1] did it give?
Answer: 0.853 µM

Question: And the TGI [2]?
Answer: > 100 µM

Question: What about the TGI [3] of the same compound?
Answer: 0.0321 µM

Question: What about the TGI [4] of the same compound?
Answer: > 100 µM

Question: And the TGI [5]?
Answer: > 43.4 µM

Question: What about the TGI [6] of the same compound?
Answer: > 36 µM

Question: What about the TGI [7] of the same compound?
Answer: > 100 µM

Question: What about the TGI [8] of the same compound?
Answer: > 55 µM

Question: What about the TGI [9] of the same compound?
Answer: 45.7 µM

Question: And the TGI [10]?
Answer: 9.69 µM

Question: What does the source list for OC[C@@H](O)[C@H](O)[C@H](O)[C@@H](O)C1SCCCS1?
Answer: TGI [1]: > 100 µM; TGI [2]: > 100 µM; TGI [3]: > 100 µM; TGI [4]: > 100 µM; TGI [5]: > 100 µM; TGI [6]: > 100 µM; TGI [7]: > 100 µM; TGI [8]: > 100 µM; TGI [9]: > 100 µM; TGI [10]: > 100 µM

Question: Which TGI [1] does the source give for CC(=O)[C@H]1CC[C@@H]2[C@]1(C)CC=C1[C@]23C=C[C@]2(C[C@@H](O)CC[C@]12C)C(C(=O)O)C3C(=O)O (stereo not given in full) here?
Answer: > 100 µM

Question: And the TGI [2]?
Answer: > 100 µM

Question: What about the TGI [3] of the same compound?
Answer: > 100 µM

Question: And the TGI [4]?
Answer: > 100 µM

Question: What about the TGI [5] of the same compound?
Answer: > 100 µM

Question: And the TGI [6]?
Answer: > 100 µM

Question: What about the TGI [7] of the same compound?
Answer: > 100 µM

Question: And the TGI [8]?
Answer: > 100 µM

Question: And the TGI [9]?
Answer: > 100 µM

Question: And the TGI [10]?
Answer: > 100 µM

Question: Which TGI [1] does the source give for C#CCn1c(=O)c2cc(OC)c(OC)cc2n(CC#C)c1=O here?
Answer: > 10 µM

Question: What about the TGI [2] of the same compound?
Answer: > 10 µM

Question: What about the TGI [3] of the same compound?
Answer: > 10 µM

Question: What about the TGI [4] of the same compound?
Answer: > 10 µM

Question: What about the TGI [5] of the same compound?
Answer: > 10 µM

Question: And the TGI [6]?
Answer: > 10 µM

Question: And the TGI [7]?
Answer: > 10 µM

Question: And the TGI [8]?
Answer: > 10 µM

Question: What about the TGI [9] of the same compound?
Answer: > 10 µM

Question: What about the TGI [10] of the same compound?
Answer: > 10 µM

Question: What does the source list for CCOC(=O)/C(C(N)=O)=C(/O)c1cnccn1?
Answer: TGI [1]: > 100 µM; TGI [2]: > 100 µM; TGI [3]: > 100 µM; TGI [4]: > 100 µM; TGI [5]: > 100 µM; TGI [6]: > 100 µM; TGI [7]: > 100 µM; TGI [8]: > 100 µM; TGI [9]: > 100 µM; TGI [10]: > 100 µM

Question: How did the TGI [1] turn out when COc1ccc(C2=Nn3c(nc4sc5c(c4c3=O)CCCC5)SC2)cc1 was run?
Answer: > 100 µM

Question: What about the TGI [2] of the same compound?
Answer: > 100 µM

Question: What about the TGI [3] of the same compound?
Answer: > 100 µM

Question: What about the TGI [4] of the same compound?
Answer: > 100 µM

Question: And the TGI [5]?
Answer: > 100 µM

Question: What about the TGI [6] of the same compound?
Answer: > 100 µM

Question: What about the TGI [7] of the same compound?
Answer: > 100 µM

Question: What about the TGI [8] of the same compound?
Answer: > 100 µM

Question: And the TGI [9]?
Answer: > 100 µM

Question: And the TGI [10]?
Answer: > 100 µM

Question: With COC(=O)C1=C(C(=O)OC)SC2(S1)C(C(=O)OC)=C(C(=O)OC)Sc1c2ssc1=O as the compound, how does the TGI [1] read?
Answer: 2.69 µM

Question: And the TGI [2]?
Answer: 6.16 µM

Question: And the TGI [3]?
Answer: 4.36 µM

Question: And the TGI [4]?
Answer: 3.26 µM

Question: And the TGI [5]?
Answer: 3.59 µM

Question: And the TGI [6]?
Answer: 2.96 µM

Question: And the TGI [7]?
Answer: 2.22 µM

Question: And the TGI [8]?
Answer: 4.65 µM

Question: And the TGI [9]?
Answer: 15.4 µM

Question: What about the TGI [10] of the same compound?
Answer: 2.97 µM

Question: CN(CCCNC(=O)c1[nH]nc2c1ccc1ccccc12)CCCNC(=O)c1[nH]nc2c1ccc1ccccc12 was tested. Which TGI [1] did it give?
Answer: 30.9 µM

Question: And the TGI [2]?
Answer: 38.8 µM

Question: What about the TGI [3] of the same compound?
Answer: 7.71 µM

Question: What about the TGI [4] of the same compound?
Answer: 4.54 µM

Question: And the TGI [5]?
Answer: 16.9 µM

Question: And the TGI [6]?
Answer: 30.1 µM

Question: And the TGI [7]?
Answer: 31.4 µM

Question: And the TGI [8]?
Answer: 28.7 µM

Question: And the TGI [9]?
Answer: 39.7 µM

Question: What about the TGI [10] of the same compound?
Answer: 30.7 µM

Question: Which TGI [1] does the source give for CC(NC(=O)C(NC(=O)C(NC(=O)C(F)(F)F)C(C)C)C(C)C)C(=O)Oc1c(Cl)c(Cl)c(Cl)c(Cl)c1Cl (stereo not given) here?
Answer: > 100 µM

Question: And the TGI [2]?
Answer: > 100 µM

Question: And the TGI [3]?
Answer: > 100 µM

Question: What about the TGI [4] of the same compound?
Answer: > 100 µM

Question: And the TGI [5]?
Answer: > 100 µM

Question: What about the TGI [6] of the same compound?
Answer: > 100 µM

Question: What about the TGI [7] of the same compound?
Answer: > 100 µM

Question: What about the TGI [8] of the same compound?
Answer: > 100 µM

Question: And the TGI [9]?
Answer: > 100 µM

Question: And the TGI [10]?
Answer: > 100 µM

Question: C1=Nc2ccc(cc2)-c2ccc(cc2)N=Cc2ccccc2OCc2cccc(n2)COc2ccccc21 was tested. Which TGI [1] did it give?
Answer: > 100 µM

Question: And the TGI [2]?
Answer: > 100 µM

Question: What about the TGI [3] of the same compound?
Answer: > 100 µM

Question: What about the TGI [4] of the same compound?
Answer: > 100 µM

Question: What about the TGI [5] of the same compound?
Answer: > 100 µM

Question: And the TGI [6]?
Answer: > 100 µM

Question: What about the TGI [7] of the same compound?
Answer: > 72.9 µM

Question: And the TGI [8]?
Answer: > 100 µM

Question: What about the TGI [9] of the same compound?
Answer: > 100 µM

Question: And the TGI [10]?
Answer: > 100 µM

Question: What does the source list for Cc1[nH]c(-c2ccccc2)c(O)c1C(=O)OC1CC(C)CCC1C(C)C (stereo not given)?
Answer: TGI [1]: 29.9 µM; TGI [2]: 23.9 µM; TGI [3]: 28 µM; TGI [4]: 29.8 µM; TGI [5]: 29.5 µM; TGI [6]: 29.1 µM; TGI [7]: 30 µM; TGI [8]: 14.9 µM; TGI [9]: 27.9 µM; TGI [10]: 30.9 µM

Question: For O=C(O)Cn1cnc2c(=O)[nH]c(Nc3ccccc3)nc21, which TGI [1] is on record?
Answer: > 100 µM

Question: What about the TGI [2] of the same compound?
Answer: > 100 µM

Question: What about the TGI [3] of the same compound?
Answer: > 100 µM

Question: And the TGI [4]?
Answer: > 100 µM

Question: And the TGI [5]?
Answer: > 100 µM

Question: What about the TGI [6] of the same compound?
Answer: > 100 µM

Question: What about the TGI [7] of the same compound?
Answer: > 100 µM

Question: And the TGI [8]?
Answer: > 100 µM

Question: And the TGI [9]?
Answer: > 100 µM

Question: And the TGI [10]?
Answer: > 100 µM

Question: For O=S1(=O)OCCOS(=O)(=O)C1C1c2ccccc2-c2ccccc21, which TGI [1] is on record?
Answer: > 100 µM

Question: And the TGI [2]?
Answer: > 100 µM

Question: What about the TGI [3] of the same compound?
Answer: > 100 µM

Question: What about the TGI [4] of the same compound?
Answer: > 100 µM

Question: What about the TGI [5] of the same compound?
Answer: > 100 µM

Question: And the TGI [6]?
Answer: > 100 µM

Question: And the TGI [7]?
Answer: > 100 µM

Question: And the TGI [8]?
Answer: > 100 µM

Question: What about the TGI [9] of the same compound?
Answer: > 100 µM

Question: And the TGI [10]?
Answer: > 100 µM

Question: How did the TGI [1] turn out when Nc1nc(Cl)cc(Oc2ccc(Cl)cc2)n1 was run?
Answer: > 100 µM

Question: What about the TGI [2] of the same compound?
Answer: > 100 µM

Question: What about the TGI [3] of the same compound?
Answer: > 100 µM

Question: And the TGI [4]?
Answer: > 100 µM

Question: And the TGI [5]?
Answer: > 100 µM

Question: And the TGI [6]?
Answer: > 100 µM

Question: What about the TGI [7] of the same compound?
Answer: > 100 µM

Question: And the TGI [8]?
Answer: > 100 µM

Question: And the TGI [9]?
Answer: > 100 µM

Question: What about the TGI [10] of the same compound?
Answer: > 100 µM

Question: How did the TGI [1] turn out when CC(C)(C)c1ccc(OCCOc2ccc(C(C)(C)C)cc2NC=O)c(NC=O)c1 was run?
Answer: 59.4 µM

Question: What about the TGI [2] of the same compound?
Answer: 98 µM

Question: What about the TGI [3] of the same compound?
Answer: 26.9 µM

Question: What about the TGI [4] of the same compound?
Answer: 32.6 µM

Question: And the TGI [5]?
Answer: 27.4 µM

Question: And the TGI [6]?
Answer: 30.8 µM

Question: What about the TGI [7] of the same compound?
Answer: > 73.2 µM

Question: What about the TGI [8] of the same compound?
Answer: 23.2 µM

Question: And the TGI [9]?
Answer: 16.2 µM

Question: What about the TGI [10] of the same compound?
Answer: 28.1 µM

Question: Which TGI [1] does the source give for c1ccc(C(OCCN2CC3CCC(C2)N3)c2ccccc2)cc1 here?
Answer: > 100 µM

Question: And the TGI [2]?
Answer: > 100 µM

Question: And the TGI [3]?
Answer: > 100 µM

Question: And the TGI [4]?
Answer: > 100 µM

Question: And the TGI [5]?
Answer: 49 µM

Question: And the TGI [6]?
Answer: > 100 µM

Question: And the TGI [7]?
Answer: > 100 µM

Question: What about the TGI [8] of the same compound?
Answer: > 100 µM

Question: And the TGI [9]?
Answer: > 100 µM

Question: And the TGI [10]?
Answer: > 100 µM
